Measurements as given in PubChem BioAssay (NCI).
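Growth conditions: 96-well plates. Treatment: test compound, 48 hours, 5 concentrations. Analysis: linear interpolation between bracketing concentrations; unreached endpoints set to highest concentration. The concentration for full growth arrest is given as TGI.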

Key:
Experiment in all cases: NCI-60 cell line screen, 48 h
[1] = system: 786-0 renal
[2] = system: A498 renal
[3] = system: A549 NSCLC
[4] = system: ACHN renal
[5] = system: BT-549 breast
[6] = system: CAKI-1 renal
[7] = system: CCRF-CEM leukemia
[8] = system: COLO 205 colon
[9] = system: DU-145 prostate
[10] = system: EKVX NSCLC
[11] = system: HCC-2998 colon
[12] = system: HCT-116 colon
[13] = system: HCT-15 colon
[14] = system: HL-60(TB) leukemia
[15] = system: HOP-62 NSCLC
[16] = system: HS 578T breast
[17] = system: HT29 colon
[18] = system: IGROV1 ovarian
[19] = system: K-562 leukemia
[20] = system: KM12 colon
[21] = system: LOX IMVI melanoma
[22] = system: M14 melanoma
[23] = system: MALME-3M melanoma
[24] = system: MCF7 breast
[25] = system: MDA-MB-231 breast
[26] = system: MDA-MB-435
[27] = system: MDA-N
[28] = system: MOLT-4 leukemia
[29] = system: NCI-H226 lung
[30] = system: NCI-H23 lung
[31] = system: NCI-H460 lung
[32] = system: NCI-H522 lung
[33] = system: NCI/ADR-RES ovarian
[34] = system: OVCAR-3 ovarian
[35] = system: OVCAR-4 ovarian
[36] = system: OVCAR-5 ovarian
[37] = system: OVCAR-8 ovarian
[38] = system: PC-3 prostate
[39] = system: RPMI-8226 leukemia
[40] = system: SF-268 CNS
[41] = system: SF-295 CNS
[42] = system: SF-539 CNS
[43] = system: SK-MEL-2 melanoma
[44] = system: SK-MEL-5 melanoma
[45] = system: SK-OV-3 ovarian
[46] = system: SN12C renal
[47] = system: SNB-19 CNS
[48] = system: SNB-75 CNS
[49] = system: SR leukemia
[50] = system: SW-620 colon
[51] = system: T-47D breast
[52] = system: TK-10 renal
[53] = system: U251 CNS
[54] = system: UACC-257 melanoma
[55] = system: UACC-62 melanoma
[56] = system: UO-31 renal
[57] = system: DLD-1 colon
[58] = system: DMS 273 small cell lung
[59] = system: HOP-18 NSCLC
[60] = system: KM20L2 colon
[61] = system: LXFL 529 NSCLC
[62] = system: M19-MEL melanoma
[63] = system: RXF 393 renal
[64] = system: SK-MEL-28 melanoma
[65] = system: SNB-78 CNS
[66] = system: HOP-92 NSCLC

For `NC(=O)c1nnc2cc(F)c(F)cc2c1N`, the TGI [1] was greater than 100 µM, the TGI [2] was greater than 100 µM and the TGI [3] was greater than 100 µM. The TGI [4] was greater than 100 µM, the TGI [5] was 45.6 µM and the TGI [6] was greater than 100 µM. For the same compound, the TGI [7] was greater than 100 µM, the TGI [8] was greater than 100 µM and the TGI [9] was greater than 100 µM. For the same compound, the TGI [10] was greater than 100 µM, the TGI [11] was greater than 100 µM and the TGI [12] was greater than 100 µM. It also gave a TGI [13] greater than 100 µM, a TGI [14] greater than 100 µM and a TGI [15] of 39.6 µM. The TGI [16] was 84.4 µM, the TGI [17] was greater than 100 µM and the TGI [18] was greater than 100 µM. The TGI [19] was greater than 100 µM, the TGI [20] was greater than 100 µM and the TGI [21] was greater than 100 µM. It also gave a TGI [22] greater than 100 µM, a TGI [23] greater than 100 µM and a TGI [24] greater than 100 µM. For the same compound, the TGI [25] was greater than 100 µM, the TGI [26] was greater than 100 µM and the TGI [27] was greater than 100 µM. The TGI [28] was greater than 100 µM, the TGI [29] was 73.6 µM and the TGI [30] was greater than 100 µM. For the same compound, the TGI [31] was greater than 100 µM, the TGI [32] was 56.8 µM and the TGI [33] was greater than 100 µM. It also gave a TGI [34] greater than 100 µM, a TGI [35] greater than 100 µM and a TGI [36] greater than 100 µM. It also gave a TGI [37] greater than 100 µM, a TGI [38] greater than 100 µM and a TGI [39] greater than 100 µM. The TGI [40] was 49.9 µM, the TGI [41] was 64.5 µM and the TGI [42] was greater than 100 µM. For the same compound, the TGI [43] was 38.5 µM, the TGI [44] was greater than 100 µM and the TGI [45] was 82.4 µM. The TGI [46] was greater than 100 µM, the TGI [47] was greater than 100 µM and the TGI [48] was 31.8 µM. It also gave a TGI [49] greater than 100 µM, a TGI [50] greater than 100 µM and a TGI [51] greater than 100 µM. It also gave a TGI [52] greater than 100 µM, a TGI [53] of 69.7 µM and a TGI [54] greater than 100 µM. For the same compound, the TGI [55] was greater than 100 µM and the TGI [56] was greater than 100 µM.

`O=C(CN1C(=O)c2ccccc2C1=O)OC1C=CCCC1` (stereo not drawn) was tested, and the TGI [1] was greater than 100 µM, the TGI [2] was greater than 100 µM and the TGI [3] was greater than 100 µM. For the same compound, the TGI [4] was greater than 100 µM, the TGI [6] was greater than 100 µM and the TGI [7] was greater than 100 µM. The TGI [8] was greater than 100 µM, the TGI [57] was greater than 100 µM and the TGI [58] was greater than 100 µM. The TGI [10] was greater than 100 µM, the TGI [11] was greater than 100 µM and the TGI [12] was greater than 100 µM. The TGI [13] was greater than 100 µM, the TGI [14] was greater than 100 µM and the TGI [59] was greater than 100 µM. It also gave a TGI [15] greater than 100 µM, a TGI [18] greater than 100 µM and a TGI [19] greater than 100 µM. The TGI [20] was greater than 100 µM, the TGI [60] was greater than 100 µM and the TGI [61] was greater than 100 µM. The TGI [22] was greater than 100 µM, the TGI [62] was greater than 100 µM and the TGI [23] was greater than 100 µM. For the same compound, the TGI [28] was greater than 100 µM, the TGI [29] was greater than 100 µM and the TGI [31] was greater than 100 µM. For the same compound, the TGI [32] was greater than 100 µM, the TGI [35] was greater than 100 µM and the TGI [37] was greater than 100 µM. For the same compound, the TGI [39] was greater than 100 µM, the TGI [63] was greater than 100 µM and the TGI [40] was greater than 100 µM. It also gave a TGI [42] greater than 100 µM, a TGI [43] greater than 100 µM and a TGI [64] greater than 100 µM. The TGI [44] was greater than 100 µM, the TGI [45] was greater than 100 µM and the TGI [46] was greater than 100 µM. It also gave a TGI [47] greater than 100 µM, a TGI [48] greater than 100 µM and a TGI [65] greater than 100 µM. It also gave a TGI [49] greater than 100 µM, a TGI [50] greater than 100 µM and a TGI [52] greater than 100 µM. It also gave a TGI [53] greater than 100 µM, a TGI [54] greater than 100 µM and a TGI [55] greater than 100 µM. The TGI [56] was greater than 100 µM.

`C/C(=N/NC(=S)Nc1cccc(Cl)c1)c1cccc(/C(C)=N\NC(=S)Nc2cccc(Cl)c2)n1` was tested, and the TGI [1] was greater than 41.7 µM, the TGI [2] was greater than 100 µM and the TGI [3] was greater than 24.5 µM. The TGI [4] was 6.73 µM, the TGI [5] was greater than 100 µM and the TGI [6] was greater than 48.1 µM. The TGI [7] was 16.2 µM, the TGI [8] was greater than 100 µM and the TGI [9] was greater than 73.1 µM. The TGI [10] was greater than 39.7 µM, the TGI [11] was greater than 100 µM and the TGI [12] was greater than 35.4 µM. It also gave a TGI [13] greater than 100 µM, a TGI [14] greater than 100 µM and a TGI [15] of 23.8 µM. For the same compound, the TGI [66] was greater than 100 µM, the TGI [16] was greater than 74.6 µM and the TGI [17] was greater than 42.4 µM. For the same compound, the TGI [18] was greater than 75.2 µM, the TGI [19] was greater than 40.4 µM and the TGI [20] was greater than 100 µM. For the same compound, the TGI [21] was greater than 38.5 µM, the TGI [22] was 7.76 µM and the TGI [23] was 22.4 µM. The TGI [24] was 8.94 µM, the TGI [25] was greater than 100 µM and the TGI [26] was greater than 100 µM. The TGI [27] was greater than 65.7 µM, the TGI [28] was 8.67 µM and the TGI [29] was 5.44 µM. It also gave a TGI [30] greater than 38.5 µM, a TGI [31] greater than 44.7 µM and a TGI [32] greater than 27 µM. The TGI [33] was greater than 100 µM, the TGI [35] was greater than 100 µM and the TGI [36] was greater than 85.8 µM. For the same compound, the TGI [37] was greater than 37.5 µM, the TGI [38] was greater than 58.1 µM and the TGI [39] was 15.9 µM. For the same compound, the TGI [63] was greater than 43.9 µM, the TGI [40] was greater than 47.8 µM and the TGI [41] was greater than 30 µM. It also gave a TGI [42] of 3.72 µM, a TGI [43] greater than 43.9 µM and a TGI [64] greater than 100 µM. It also gave a TGI [44] of 35 µM, a TGI [45] greater than 55.3 µM and a TGI [46] greater than 46.3 µM. The TGI [47] was greater than 100 µM, the TGI [48] was 40.8 µM and the TGI [49] was 4.56 µM. The TGI [50] was greater than 100 µM, the TGI [51] was greater than 100 µM and the TGI [52] was greater than 100 µM. It also gave a TGI [53] greater than 59.3 µM, a TGI [54] of 56 µM and a TGI [55] of 16.4 µM. For the same compound, the TGI [56] was greater than 20.9 µM.
